Assay results: publication PMC13372681, “A natural depsipeptide antibiotic binds the E-site of the bacterial ribosome” (Nature, 2026)
≈ marks a conversion by molar mass, not a printed value. Like-named read-outs stand apart in the source and are kept apart here. Where a SMILES comes first, the peptide text is derived from it. Bridges are numbered along the chain shown (N, C = ends). [ ]: non-standard residue; d: D form. dOrn = NCCC[C@@H](N)C(=O)O

Experiments:
[1] = system: M. tuberculosis H37Ra; conditions: Middlebrook 7H9 + 10% OADC + 0.05% Tween-80
[2] = system: M. avium subsp. avium ATCC 25291; conditions: Middlebrook 7H9 + 10% OADC + 0.05% Tween-80
[3] = system: Bifidobacterium breve GC96; assay: MIC, anaerobic gut bacteria; type: cell-based; conditions: gut isolate, BHI + L-cysteine, haemin, vitamin K, 37 °C
[4] = in vivo; conditions: female, ICR CD-1, mouse, plasma, sc; for level at 8 h / level at 24 h: below limit of quantification
[5] = system: Clostridium perfringens GC1584; conditions: gut isolate; BHI + L-cysteine, haemin, vitamin K, anaerobic, 37 °C
[6] = human plasma 1:1 with PBS pH 7.4, 10 µM, 37 °C, 0–120 min, LC–MS, % remaining; duplicate, two biological replicates
[7] = system: M. bovis BCG Pasteur ATCC 35734; conditions: Middlebrook 7H9 + 10% OADC + 0.05% Tween-80
[8] = system: S. aureus ATCC 29213
[9] = mouse plasma 1:1 with PBS pH 7.4, 10 µM, 37 °C, 0–120 min, LC–MS, % remaining; duplicate, two biological replicates
[10] = system: Bacteroides fragilis GC73; assay: MIC, anaerobic gut bacteria; type: cell-based; conditions: gut isolate, BHI + L-cysteine, haemin, vitamin K, 37 °C
[11] = system: E. coli C1508; conditions: broth microdilution, MDR clinical isolate
[12] = system: Lactobacillus plantarum GC4; assay: MIC, anaerobic gut bacteria; type: cell-based; conditions: gut isolate, BHI + L-cysteine, haemin, vitamin K, 37 °C
[13] = system: A. baumanii ATCC 17978
[14] = system: Candida albicans ATCC 90028
[15] = system: Blautia obeum GC925; assay: MIC, anaerobic gut bacteria; type: cell-based; conditions: gut isolate, BHI + L-cysteine, haemin, vitamin K, 37 °C
[16] = system: K. pneumoniae C1459
[17] = system: S. enterica ATCC 14028; conditions: broth microdilution, Ca+ MHB Medium
[18] = system: P. aeruginosa PAO1
[19] = system: S. aureus USA 300; conditions: broth microdilution, MHBII
[20] = system: HEK293 cells; assay: Mammalian cytotoxicity, Cell Titer Glo; type: cell-based, human; conditions: 48 h exposure, DMEM + 10% FBS, 1% DMSO, Cell Titer Glo 2.0 luminescence
Protocol: (§1) Mammalian culture was performed in Dulbecco Modified Eagle Medium (DMEM) supplemented with 10% fetal bovine serum (FBS), 2 mM L-glutamine, 100 units ml^−1 penicillin and 100 µg ml^−1 streptomycin. HEK293 cells (ATCC CRL-1573; generation 6) were seeded at 7,500 cells per well and HepG2 cells (ATCC HB8065; generation 18) were seeded at 4,000 cells per well in 384-well tissue culture-treated white plates in 50 µl DMEM and incubated for 18 h at 37 °C in the presence of 5% CO2. After 18 h of incubation, 500 nl of the compound and DMSO (1% final concentration) were added to the cells using a Labcyte Echo acoustic dispenser (Beckman Coulter). Cells were further incubated for 48 h and after that cell viability was assessed using Promega Cell Titer Glo 2.0 reagent (Fisher Scientific). Before incubating the plates at room temperature for 10 min, 50 µl of Cell Titer Glo was added directly to the medium. The plates were then shaken for 2 min. The Neo2 plate reader (Biotek) was used to read the luminescence through luminescent fibre. Cells that were either not treated or solely treated with DMSO were used as a control.

[21] = system: HepG2 cells; assay: Mammalian cytotoxicity, Cell Titer Glo; type: cell-based, human; conditions: 48 h exposure, DMEM + 10% FBS, 1% DMSO, Cell Titer Glo 2.0 luminescence
Protocol: as §1

[22] = system: Bacillus subtilis 168
[23] = system: E. coli ΔtolC ΔbamB; conditions: broth microdilution
[24] = system: E. coli C0617
[25] = 50 mg/kg, Plasma concentration MKM, s.c. 50 mg/kg, Mouse 2
[26] = 50 mg/kg, Plasma concentration MKM, s.c. 50 mg/kg, Mouse 3
[27] = 50 mg/kg, Plasma concentration MKM, s.c. 50 mg/kg, Mouse 1
[28] = broth microdilution, Ca+ MHB Medium
[29] = broth microdilution, Ca+ MHB Medium, MDR clinical isolate

## C[C@@H](O)[C@@H]1NC(=O)[C@@H](CCCNC(=N)N)NC(=O)[C@@H](CCCNC(=N)N)NC(=O)[C@@H](CC(N)=O)NC(=O)[C@@H](NC(=O)[C@@H](Cc2ccccc2)NC(=O)[C@@H](CCCN)NC(=O)[C@H](N)CCCNC(=N)N)[C@@H](C)OC(=O)[C@H](Cc2c[nH]cn2)NC1=O [MKM-A, manikomycin] (H-[dR][dOrn][dF]T[dN][dR][dR]TH; ester 4-C)
[1]
  MIC: 4 µg/mL
[2]
  MIC: 32 µg/mL
[3]
  MIC: 256 µg/mL
[4]; 50 mg kg^−1
  Cmax: 9130 ng/mL
  half-life: ~36 min
[4]; 50 mg/kg, Plasma concentration MKM, s.c. 50 mg/kg, Mouse 1, linear range 1.6–50 µg/ml
  level at 0.25 h: 6650 ng/mL
[4]; [25]
  level at 0.25 h: 8580 ng/mL
  level at 1 h: 9080 ng/mL
  level at 2 h: 1060 ng/mL
  level at 8 h: 55.8 ng/mL
  level at 24 h: 27.3 ng/mL
[4]; [26]
  level at 0.25 h: 9540 ng/mL
  level at 1 h: 6930 ng/mL
  level at 2 h: 2600 ng/mL
  level at 8 h: 108 ng/mL
  level at 24 h: 68 ng/mL
[4]; 50 mg/kg, Plasma concentration MKM, s.c. 50 mg/kg, Time 0.5 (h), Mouse 3
  level at 0.5 h: 9170 ng/mL
[4]; [27]
  level at 1 h: 6890 ng/mL
  level at 2 h: 1470 ng/mL
  level at 8 h: 386 ng/mL
  level at 24 h: 71.5 ng/mL
[5]
  MIC: >256 µg/mL
[6]
  stability in plasma: excellent stability
[7]
  MIC: 2 µg/mL
[8]
  MIC: 64 µg/mL (≈ 54.1 µM)
[9]
  stability in plasma: excellent stability
[10]
  MIC: >256 µg/mL
[11]; Ca+ MHB Medium
  MIC: 32 µg/mL (≈ 27 µM)
[11]; MOPS Minimal Medium
  MIC: 16 µg/mL (≈ 13.5 µM)
[11]; RPMI Medium
  MIC: 4 µg/mL (≈ 3.38 µM)
[12]
  MIC: >256 µg/mL
[13]; ATCC 17978
  MIC: 64 µg/mL (≈ 54.1 µM)
[13]; [28]
  MIC: >128 µg/mL
[14]
  MIC: >64 µg/mL
[15]
  MIC: >256 µg/mL
[16]; C1459
  MIC: 8 µg/mL (≈ 6.76 µM)
[16]; [29]
  MIC: 32 µg/mL (≈ 27 µM)
[17]
  MIC: 32 µg/mL (≈ 27 µM)
[18]; PAO1
  MIC: >64 µg/mL
[18]; [28]
  MIC: >128 µg/mL
[18]; broth microdilution, MOPS Minimal Medium
  MIC: >128 µg/mL
[19]
  MIC: 128 µg/mL (≈ 108 µM)
[20]
  HEK 293 (IC50): >256 µg/mL
[21]
  HepG2 (IC50): >256 µg/mL
[22]
  MIC: >64 µg/mL
[23]; Ca+ MHB Medium
  MIC: 8 µg/mL (≈ 6.76 µM)
[23]; MOPS Minimal Medium
  MIC: 2 µg/mL (≈ 1.69 µM)
[23]; RPMI Medium
  MIC: 2 µg/mL (≈ 1.69 µM)
[24]; C0617
  MIC: 8 µg/mL (≈ 6.76 µM)
[24]; [29]
  MIC: 32 µg/mL (≈ 27 µM)
